Measurements taken from ChEMBL document CHEMBL1158811, “Echinamines A and B, first aminated hydroxynaphthazarins from the sea urchin Scaphechinus mirabilis” (J Nat Prod, 2005).

System: Radical scavenging activity
Assay: Antioxidant activity assessed as DPPH radical scavenging activity
Format: functional

EC50, 10 µM:
CCc1c(O)c(O)c2c(c1O)C(=O)C(N)=C(O)C2=O [ECHINAMINE B]
CCc1c(O)c(O)c2c(c1O)C(=O)C(O)=C(N)C2=O [ECHINAMINE A]
O=C1C(O)=C(O)C(=O)c2c(O)c(O)cc(O)c21 [SPINOCHROME D]
CCC1=C(O)C(=O)c2c(O)c(O)c(O)c(O)c2C1=O [ECHINOCHROME A]
